Among the test systems are 786-0; A498; A549; BT-549; COLO 205; HCT-15; HL-60; HOP-92; KM12; NCI-H226; NCI-H460; OVCAR-3; OVCAR-4; OVCAR-5; OVCAR-8; SF-268; SF-539; SK-MEL-5; SNB-19; UO-31.
What all share (assay): growth of human tumour cells (NCI), 48 h

The structures appear in SMILES notation.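 How tested: cells in 96-well plates exposed to compound for 48 hours at five concentrations. Here, GI50 denotes the concentration required for 50% inhibition of growth.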 Activity calls are given as the source filed them. Cut-off read from the data, not from the text of the source: active = GI50 up to about 1.1 µM and inactive = higher.

With `CC1CCCN(CP(=O)(c2ccccc2)c2ccccc2)C1` (stereo not given), the GI50 was > 100 µM (inactive) in the assay on 786-0; > 100 µM (inactive) in the assay with A498; > 100 µM (inactive) in the assay on A549; > 100 µM (inactive) in the assay with BT-549; > 100 µM (inactive) in the assay on COLO 205; greater than 100 µM with HCT-15. Moreover, the GI50 in the assay on HL-60 is 13.6 µM (inactive); in the assay with HOP-92 it was > 100 µM (inactive); in the assay on KM12, > 100 µM (inactive); in the assay with NCI-H226 it was > 100 µM (inactive); in the assay with NCI-H460, 92.5 µM (inactive); in the assay on OVCAR-3, 78.2 µM (inactive). Moreover, the GI50 with OVCAR-4 is 94.4 µM (inactive); with OVCAR-5, > 100 µM (inactive); in the assay on OVCAR-8 it was > 100 µM (inactive); in the assay on SF-268 it was > 100 µM (inactive); in the assay with SF-539, > 100 µM (inactive); in the assay with SK-MEL-5, > 100 µM (inactive). Further, the GI50 in the assay with SNB-19 and in the assay on UO-31 was > 100 µM (inactive) in each case.
For `CCOC(=O)c1ccc(NC(=O)O/N=C(/Cl)C(C)C)cc1`, the GI50 is 6.67 µM (inactive) in the assay with 786-0; 14.7 µM (inactive) in the assay with A498; 21.7 µM (inactive) in the assay with A549; 14.9 µM (inactive) with BT-549; 2.42 µM (inactive) in the assay on COLO 205; 8.59 µM with HCT-15. Besides, the GI50 was 1.23 µM (inactive) in the assay with HL-60; 1.82 µM (inactive) with HOP-92; 18.3 µM (inactive) in the assay with KM12; 24.4 µM (inactive) in the assay with NCI-H226; 19.6 µM (inactive) in the assay on NCI-H460; 5.28 µM (inactive) with OVCAR-3. For the same compound, the GI50 in the assay on OVCAR-4 is 14.5 µM (inactive); in the assay on OVCAR-5, 17.6 µM (inactive); in the assay with OVCAR-8, 13.9 µM (inactive); in the assay with SF-268, 16.5 µM (inactive); in the assay on SF-539 it was 18.6 µM (inactive); in the assay on SK-MEL-5 it was 16.1 µM (inactive). In addition, the GI50 with SNB-19 was 24 µM (inactive); in the assay with UO-31, 17.8 µM (inactive).
As to `Cc1cc(C)c2c(n1)S(=O)(=O)N(CCCN1CCN(c3cccc(C(F)(F)F)c3)CC1)c1c-2nn(C)c1C`, the GI50 is > 100 µM (inactive) in the assay on 786-0; > 100 µM (inactive) with A498; 65.6 µM (inactive) in the assay with A549; > 100 µM (inactive) in the assay with BT-549; 26.1 µM (inactive) with COLO 205; 44.5 µM with HCT-15. The GI50 was 24 µM (inactive) in the assay with HL-60; 45.3 µM (inactive) with HOP-92; 52.8 µM (inactive) in the assay on KM12; 30.7 µM (inactive) in the assay on NCI-H226; 89.3 µM (inactive) with NCI-H460; 67.1 µM (inactive) with OVCAR-3. The GI50 is 75.3 µM (inactive) in the assay with OVCAR-4; > 100 µM (inactive) in the assay with OVCAR-5; > 100 µM (inactive) with OVCAR-8; > 100 µM (inactive) in the assay with SF-268; > 100 µM (inactive) with SF-539; 23.1 µM (inactive) in the assay with SK-MEL-5. Further, the GI50 was > 100 µM (inactive) in the assay with SNB-19 and 44.4 µM (inactive) in the assay with UO-31.
As for `O=C1OC(c2ccc(O)c(-c3ccccc3)c2)(c2ccc(O)c(-c3ccccc3)c2)c2c(Cl)c(Cl)c(Cl)c(Cl)c21`, the GI50 in the assay with 786-0 was > 100 µM (inactive); in the assay on A498 it was > 100 µM (inactive); in the assay on A549 it was > 100 µM (inactive); in the assay with BT-549, > 100 µM (inactive); in the assay with COLO 205, > 100 µM (inactive); with HCT-15, greater than 100 µM. Further, the GI50 in the assay with HL-60 was 0.177 µM (active); with HOP-92 it was > 100 µM (inactive); with KM12, > 100 µM (inactive); in the assay on NCI-H226 it was > 100 µM (inactive); with NCI-H460 it was > 100 µM (inactive); in the assay with OVCAR-3, > 100 µM (inactive). Moreover, the GI50 with OVCAR-4, with OVCAR-5, in the assay with OVCAR-8, in the assay with SF-268, in the assay on SF-539 and with SK-MEL-5 was > 100 µM (inactive) in each case. In addition, the GI50 in the assay with SNB-19 and in the assay on UO-31 was > 100 µM (inactive) throughout.
`COc1c2c(cc3c1OCO3)[C@]13C=C[C@H](OC)C[C@H]1N(C2)CC3O` (stereo not given in full): the GI50 was > 100 µM (inactive) in the assay with 786-0; > 100 µM (inactive) with A498; > 100 µM (inactive) with A549; > 100 µM (inactive) with BT-549; > 100 µM (inactive) with COLO 205; greater than 100 µM in the assay on HCT-15. Moreover, the GI50 with HL-60, with HOP-92, with KM12, in the assay on NCI-H226, with NCI-H460 and with OVCAR-3 was > 100 µM (inactive) throughout. Further, the GI50 with OVCAR-4, in the assay with OVCAR-5, with OVCAR-8, in the assay on SF-268, in the assay on SF-539 and in the assay on SK-MEL-5 was > 100 µM (inactive) in each case. The GI50 with SNB-19 and in the assay on UO-31 was > 100 µM (inactive) in each case.
As to `C=CC[C@@]1([C@H](C=C)COCc2ccc(OC)cc2)CC[C@]2(C)OC(C)(C)[C@@H](c3ccccc3)N2C1=S`, the GI50 in the assay with 786-0 is 58.6 µM (inactive); with A498, 71.3 µM (inactive); in the assay on A549 it was 60.8 µM (inactive); with BT-549, 40.7 µM (inactive); with COLO 205 it was 19.1 µM (inactive); in the assay with HCT-15, 81.5 µM. For the same compound, the GI50 with HL-60 was 22.4 µM (inactive); in the assay on HOP-92, 30 µM (inactive); with KM12, 36.9 µM (inactive); in the assay on NCI-H226 it was 39.5 µM (inactive); with NCI-H460, 44.4 µM (inactive); in the assay on OVCAR-3 it was 59.4 µM (inactive). In addition, the GI50 is 40.7 µM (inactive) in the assay on OVCAR-4; 50 µM (inactive) with OVCAR-5; 48.5 µM (inactive) with OVCAR-8; 53.5 µM (inactive) with SF-268; 95.3 µM (inactive) in the assay on SF-539; 25.2 µM (inactive) with SK-MEL-5. Further, the results for the GI50 in the assay with SNB-19 and with UO-31 were 35.2 µM (inactive) and > 100 µM (inactive), respectively.
With `COc1ccc(Cc2cc(OC)c(OC)c(OC)c2)cc1`, the GI50 in the assay on 786-0 was 0.429 µM (active); in the assay with A498, 0.27 µM (active); with A549, 0.417 µM (active); in the assay with BT-549, 1.54 µM (inactive); with COLO 205, 0.143 µM (active); in the assay with HCT-15, 0.114 µM. The GI50 in the assay with HL-60 was 0.0586 µM (active); with HOP-92, 0.805 µM (active); in the assay with KM12 it was 0.144 µM (active); in the assay with NCI-H226 it was 0.923 µM (active); in the assay on NCI-H460, 0.286 µM (active); with OVCAR-3 it was 0.151 µM (active). Also, the GI50 is 10.6 µM (inactive) in the assay on OVCAR-4; 8.83 µM (inactive) in the assay on OVCAR-5; 0.504 µM (active) in the assay with OVCAR-8; 1.27 µM (inactive) in the assay with SF-268; 0.224 µM (active) in the assay on SF-539; 0.167 µM (active) with SK-MEL-5. Also, the values for the GI50 in the assay on SNB-19 and with UO-31 were 0.324 µM (active) and 0.766 µM (active), respectively.
As to `NNC(=O)CNc1cccc(Br)c1`, the GI50 with 786-0 is > 100 µM (inactive); in the assay on A498, > 100 µM (inactive); in the assay with A549, > 100 µM (inactive); in the assay with BT-549, > 100 µM (inactive); in the assay on COLO 205, > 100 µM (inactive); in the assay with HCT-15, greater than 100 µM. For the same compound, the GI50 in the assay on HL-60 is 74.8 µM (inactive); in the assay with HOP-92 it was > 100 µM (inactive); in the assay on KM12, > 100 µM (inactive); in the assay on NCI-H226, > 100 µM (inactive); in the assay with NCI-H460, > 100 µM (inactive); in the assay on OVCAR-3, > 100 µM (inactive). The GI50 with OVCAR-4, in the assay on OVCAR-5, with OVCAR-8, in the assay on SF-268, in the assay on SF-539 and with SK-MEL-5 was > 100 µM (inactive) each time. Moreover, the GI50 in the assay on SNB-19 and with UO-31 was > 100 µM (inactive) throughout.
For the compound `O=C(CN1CCN(Cc2ccccc2)CC1)N1CCCn2c1nc1ccccc1c2=O`, the GI50 in the assay with 786-0 was > 100 µM (inactive); in the assay with A498, > 100 µM (inactive); in the assay with A549, > 100 µM (inactive); in the assay with BT-549, > 100 µM (inactive); in the assay on COLO 205, > 100 µM (inactive); with HCT-15, greater than 100 µM. For the same compound, the GI50 in the assay with HL-60 is > 100 µM (inactive); in the assay with HOP-92, 4.58 µM (inactive); in the assay on KM12, > 100 µM (inactive); with NCI-H226, 29.2 µM (inactive); in the assay with NCI-H460 it was > 100 µM (inactive); with OVCAR-3, > 100 µM (inactive). For the same compound, the GI50 in the assay with OVCAR-4, with OVCAR-5, in the assay on OVCAR-8, with SF-268, in the assay on SF-539 and in the assay on SK-MEL-5 was > 100 µM (inactive) in each case. The GI50 with SNB-19 and in the assay on UO-31 was > 100 µM (inactive) in each case.

The record behind these values is ChEMBL document CHEMBL1201862, “PubChem BioAssay data set” (2004).
